In the assay the test system is P388 leukemia ip, CD2F1 mice, survival T/C. The experiment in a line: NCI In Vivo Anticancer Drug Screen. Data for tumor model P388 Leukemia (intraperitoneal) in CD2F1 (CDF1) mice. The note with it: endpoint: median survival time, higher = longer survival. The method, boiled down: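 Mice carrying the transplanted tumor received test compound or vehicle. Survival was recorded in each group, and the value is the treated-group measurement divided by that of the vehicle-treated control group.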

[1] abbreviates: dose: 25.0 mg/kg/injection, schedule: Q01DX001 (ip), vehicle: saline with Tween-80.
[2] abbreviates: dose: 50.0 mg/kg/injection, schedule: Q01DX001 (ip), vehicle: saline with Tween-80.
Setting [3] is: dose: 100.0 mg/kg/injection, schedule: Q01DX001 (ip), vehicle: saline with Tween-80.
The mark [4] stands for this setting: dose: 50.0 mg/kg/injection, schedule: Q01DX005 (ip), vehicle: saline with Tween-80.
Setting [5] is: dose: 100.0 mg/kg/injection, schedule: Q01DX005 (ip), vehicle: saline with Tween-80.
[6] abbreviates: dose: 200.0 mg/kg/injection, schedule: Q01DX005 (ip), vehicle: saline with Tween-80.
[7] abbreviates: dose: 100.0 mg/kg/injection, schedule: Q04DX003 (ip), vehicle: Klucel (hydroxypropylcellulose) (HPC).
The mark [8] stands for this setting: dose: 200.0 mg/kg/injection, schedule: Q04DX003 (ip), vehicle: Klucel (hydroxypropylcellulose) (HPC).
Setting [9] is: dose: 400.0 mg/kg/injection, schedule: Q04DX003 (ip), vehicle: Klucel (hydroxypropylcellulose) (HPC).
Where [10] appears, read: dose: 50.0 mg/kg/injection, schedule: Q01DX005 (ip), vehicle: Klucel (hydroxypropylcellulose) (HPC).
Where [11] appears, read: dose: 100.0 mg/kg/injection, schedule: Q01DX005 (ip), vehicle: Klucel (hydroxypropylcellulose) (HPC).
The mark [12] stands for this setting: dose: 200.0 mg/kg/injection, schedule: Q01DX005 (ip), vehicle: Klucel (hydroxypropylcellulose) (HPC).
The mark [13] stands for this setting: dose: 100.0 mg/kg/injection, schedule: Q01DX009 (ip), vehicle: Klucel (hydroxypropylcellulose) (HPC).
Setting [14] is: dose: 60.0 mg/kg/injection, schedule: Q01DX005 (ip), vehicle: saline with Tween-80.
Setting [15] is: dose: 120.0 mg/kg/injection, schedule: Q01DX005 (ip), vehicle: saline with Tween-80.
Where [16] appears, read: dose: 240.0 mg/kg/injection, schedule: Q01DX005 (ip), vehicle: saline with Tween-80.
The mark [17] stands for this setting: dose: 100.0 mg/kg/injection, schedule: Q04DX003 (ip), vehicle: saline with Tween-80.
Setting [18] is: dose: 200.0 mg/kg/injection, schedule: Q04DX003 (ip), vehicle: saline with Tween-80.

The text below walks through data of PubChem BioAssay AID330 (DTP/NCI, 2004).

The structures appear in SMILES notation. Several values for one entry are separate records, joined by “and”; a condition that tells them apart may be missing. Equal values may be shown once. Toxic doses and inconclusive results are not listed.

Turning to `C[S+](C)CC[N+](C)(C)C`, the T/C by setting is: (dose: 12.5 mg/kg/injection, schedule: Q01DX009 (ip), vehicle: water) 104 % of control; (dose: 25.0 mg/kg/injection, schedule: Q01DX009 (ip), vehicle: water) 108 % of control; (dose: 50.0 mg/kg/injection, schedule: Q01DX009 (ip), vehicle: water) 110 % of control.
For `CCCCCCCCCCCCCCCCCC(=O)OCCCCCCCCCCCCC`, the T/C reads like this: (dose: 100.0 mg/kg/injection, schedule: Q01DX001 (ip), vehicle: other) 95 % of control; (dose: 200.0 mg/kg/injection, schedule: Q01DX001 (ip), vehicle: other) 100 % of control; (dose: 400.0 mg/kg/injection, schedule: Q01DX001 (ip), vehicle: other) 95 % of control.
Regarding `CCOC(=O)c1cc[nH]c1CC(=O)NC`, the T/C under setting [1] is 98 % of control and 107 % of control; the T/C under setting [2] was 102 % of control and 105 % of control; the T/C under setting [3] was 103 % of control and 113 % of control; the T/C (dose: 200.0 mg/kg/injection, schedule: Q01DX001 (ip), vehicle: saline with Tween-80) is 113 % of control and 116 % of control.
As for `CCOC(=O)C1=C(O)C(=O)C=C(O)C1=N`, the T/C (dose: 60.0 mg/kg/injection, schedule: Q01DX005 (ip), vehicle: saline) was 94 % of control; the T/C (dose: 120.0 mg/kg/injection, schedule: Q01DX005 (ip), vehicle: saline) was 94 % of control; the T/C (dose: 240.0 mg/kg/injection, schedule: Q01DX005 (ip), vehicle: saline) was 97 % of control.
With `CC(C)=CCCC1=C2[C@H](O)C=C(C)C[C@@H]2OC1=O`, the T/C under setting [4] was 100 % of control, the T/C under setting [5] was 99 % of control and the T/C under setting [6] is 101 % of control.
In the case of `O=C(Cc1ccncc1)c1cccnc1`, the T/C is, setting by setting: (dose: 12.5 mg/kg/injection, schedule: Q01DX001 (ip), vehicle: saline) 101 % of control; (dose: 25.0 mg/kg/injection, schedule: Q01DX001 (ip), vehicle: saline) 102 % of control; (dose: 50.0 mg/kg/injection, schedule: Q01DX001 (ip), vehicle: saline) 107 % of control; (dose: 100.0 mg/kg/injection, schedule: Q04DX002 (ip), vehicle: saline) 98 % of control; (dose: 200.0 mg/kg/injection, schedule: Q04DX002 (ip), vehicle: saline) 99 % of control; (dose: 400.0 mg/kg/injection, schedule: Q04DX002 (ip), vehicle: saline) 105 % of control.
`CC1=CC(=O)C2(C)C1=CC(=O)C13COC4OC(CC1C4=O)C(O)C23` (stereo unspecified): the T/C runs as follows: (dose: 1.0 mg/kg/injection, schedule: Q01DX009 (ip), vehicle: Klucel (hydroxypropylcellulose) (HPC)) 97 % of control; (dose: 2.0 mg/kg/injection, schedule: Q01DX009 (ip), vehicle: Klucel (hydroxypropylcellulose) (HPC)) 94 % of control; (dose: 4.0 mg/kg/injection, schedule: Q01DX009 (ip), vehicle: Klucel (hydroxypropylcellulose) (HPC)) 98 % of control; (dose: 8.0 mg/kg/injection, schedule: Q01DX009 (ip), vehicle: Klucel (hydroxypropylcellulose) (HPC)) 102 % of control.
`O=C(O)C1C2C=CC(C1C(=O)O)N(/C=C/c1ccccc1)C2=O` (stereo unspecified): the T/C under setting [7] is 102 % of control, the T/C under setting [8] was 91 % of control and the T/C under setting [9] was 90 % of control.
Consider `CN(C)C(=O)c1cc(N2CC2)c([N+](=O)[O-])cc1[N+](=O)[O-]`, for which the T/C (dose: 1.56 mg/kg/injection, schedule: Q01DX009 (ip), vehicle: saline with Tween-80) was 98 % of control and 117 % of control; the T/C (dose: 3.12 mg/kg/injection, schedule: Q01DX009 (ip), vehicle: saline with Tween-80) is 115 % of control; the T/C (dose: 6.25 mg/kg/injection, schedule: Q01DX009 (ip), vehicle: saline with Tween-80) was 100 % of control and 101 % of control and 113 % of control; the T/C (dose: 25.0 mg/kg/injection, schedule: Q01DX009 (ip), vehicle: saline with Tween-80) was 110 % of control.
On to `C#CC1CCC(NC(=O)NCCCCCCNC(=O)NC2CCC(C#C)CC2)CC1` (stereo unspecified), for which the T/C was 90 % of control under setting [10], 94 % of control under setting [11] and 86 % of control under setting [12].
On to `Cc1coc2c1CC1(C)C(CCC(OC(=O)CC(C)C)C1C)C2=O` (stereo unspecified) (tested in a mixture with another compound), for which the T/C is 105 % of control under setting [13] and 93 % of control (dose: 200.0 mg/kg/injection, schedule: Q01DX009 (ip), vehicle: Klucel (hydroxypropylcellulose) (HPC)).
For the molecule `Cn1c2ccc([N+](=O)[O-])cc2c(=O)c2c(O)cc3c(c21)C=CC(C)(C)O3`, the T/C runs as follows: under setting [1], 97 % of control; under setting [2], 97 % of control; under setting [3], 89 % of control and 95 % of control.
Regarding `CCCCN(CCCC)C(C)C(O)c1ccc2cc(Br)c3ccccc3c2c1` (stereo unspecified), the T/C reads like this: under setting [4], 100 % of control; under setting [5], 98 % of control; under setting [6], 91 % of control.
As to `[N-]=[N+]=Nc1ccnc2c(C(F)(F)F)cccc12`, the T/C is 108 % of control under setting [14], 100 % of control under setting [15] and 92 % of control under setting [16].
As to `Cc1ccc(S(=O)(=O)N/N=C/C(=O)O)cc1`, the T/C was 110 % of control and 119 % of control (dose: 6.25 mg/kg/injection, schedule: Q01DX009 (ip), vehicle: Klucel (hydroxypropylcellulose) (HPC)); 106 % of control (dose: 6.25 mg/kg/injection, schedule: Q01DX009 (ip), vehicle: other); 108 % of control (dose: 6.25 mg/kg/injection, schedule: Q01DX009 (ip), vehicle: water); 114 % of control and 117 % of control and 122 % of control (dose: 12.5 mg/kg/injection, schedule: Q01DX009 (ip), vehicle: Klucel (hydroxypropylcellulose) (HPC)); 121 % of control (dose: 12.5 mg/kg/injection, schedule: Q01DX009 (ip), vehicle: saline with Tween-80); 152 % of control (dose: 50.0 mg/kg/injection, schedule: Q01DX009 (ip), vehicle: Klucel (hydroxypropylcellulose) (HPC)). The T/C is 104 % of control and 119 % of control and 117 % of control under setting [13]; 107 % of control (dose: 100.0 mg/kg/injection, schedule: Q01DX009 (ip), vehicle: saline with Tween-80).
Regarding `O=C1C2=C(C(=O)C3=C1C1C=CC3C1)C1C=CC2C1`, the T/C was 118 % of control under setting [7], 102 % of control under setting [8] and 96 % of control under setting [9].
As for `COc1cc(C(C)=O)cc([N+](=O)[O-])c1O`, the T/C is, setting by setting: (dose: 50.0 mg/kg/injection, schedule: Q04DX003 (ip), vehicle: saline with Tween-80) 100 % of control; under setting [17], 100 % of control; under setting [18], 100 % of control.
Take `CCCCN(CCCC)CCC(=O)OCC`: the T/C by setting is: under setting [17], 104 % of control; under setting [18], 100 % of control; (dose: 400.0 mg/kg/injection, schedule: Q04DX003 (ip), vehicle: saline with Tween-80) 109 % of control.
Take `C[CH2][Sn]([Cl])([CH2]C)[O][Sn]([CH2]C)([CH2]C)[O][Sn]([Cl])([CH2]C)[CH2]C`: the T/C runs as follows: (dose: 6.25 mg/kg/injection, schedule: Q01DX005 (ip), vehicle: Klucel (hydroxypropylcellulose) (HPC)) 118 % of control and 121 % of control; (dose: 12.5 mg/kg/injection, schedule: Q01DX005 (ip), vehicle: Klucel (hydroxypropylcellulose) (HPC)) 113 % of control; (dose: 25.0 mg/kg/injection, schedule: Q01DX005 (ip), vehicle: Klucel (hydroxypropylcellulose) (HPC)) 111 % of control.
As for `COc1cc(OC)c2cc(C(=O)c3cccc4ccccc34)c(=O)oc2c1`, the T/C runs as follows: under setting [14], 102 % of control; under setting [15], 114 % of control; under setting [16], 91 % of control.
On to `C/C(=N\NC(=S)N1CCN(c2ccccn2)CC1)c1ncccn1`, for which the T/C reads like this: (dose: 3.13 mg/kg/injection, schedule: Q01DX005 (ip), vehicle: saline with Tween-80) 115 % of control; (dose: 6.25 mg/kg/injection, schedule: Q01DX005 (ip), vehicle: saline with Tween-80) 122 % of control and 123 % of control; (dose: 12.5 mg/kg/injection, schedule: Q01DX005 (ip), vehicle: saline with Tween-80) 95 % of control.
Turning to `O=C1NC(O)c2cc(Cl)cc(Cl)c2O1` (stereo unspecified), the T/C was 102 % of control under setting [10], 102 % of control under setting [11] and 115 % of control under setting [12].
